Results: patent US20090252754A1, “Vaccines containing the hiv tat protein as an adjuvant for the enhancement of cytotoxic t-cell responses” (priority 2003, published 2009)

Assays:
[1] = tested on: proteasome subunits (α2, PA28α, LMP2, LMP7, MECL1) in MIN and MON LCL's; test: Western blot of proteasome subunits in lymphoblastoid cell lines expressing or treated with Tat; format: cell-based, human
Procedure: PG13 murine amphotropic packaging cell line^54 was cultured in DMEM supplemented with 10% FCS. Jurkat T cell transfectants (pRPneo-c and pRPneo-c-Tat)^22 were cultured in RPMI 1640 medium, supplemented with 10% FCS and 800 μg/ml neomycin (Sigma). Lymphoblastoid cell lines (LCL) were established by in vitro infection of normal B-lymphocytes from healthy donors with the B95.8 strain of EBV. LCL's were cultured in RPMI 1640 medium supplemented with 10% FCS.
MIN and MON LCL's were transduced with pBabePuro-Tat (MIN-Tat and MON-Tat) or pBabePuro (MIN-0 and MON-0) recombinant retroviruses by co-cultivation with packaging cell lines using transwell-clear tissue culture membranes. Subconfluent PG13 pBabePuro and PG13 pBabePuro-Tat cells, grown in the lower chamber, were co-cultivated in the presence of 8 μg/ml polybrene (Sigma) with MIN or MON LCL's (3×10^6/well) added to the upper chamber in 2.5 ml of RPMI 1640 medium supplemented with 10% FCS. After 48 hrs of co-cultivation, cells were harvested from the membranes and grown in culture medium containing puromycin (0.3 μg/ml) for 6 weeks. All cell lines were characterised by DNA-PCR, RT-PCR and Northern blot analysis.
Equal amounts of proteins were loaded on a 12% SDS-PAGE gel and electroblotted onto Protran nitrocellulose membranes (Schleicher & Schuell, Keene, Hampshire, USA). The blots were probed with antibodies specific for α2, LMP2, LMP7, MECL1, and PA28α subunits (Affinity, Exeter, UK) and developed by enhanced chemiluminescence (ECL, Amersham Pharmacia Biotech, Uppsala, SW).
To test the effect on proteasomes in cells after the up-take of exogenous Tat protein, MIN and MON LCL's were cultured in the absence or presence of increasing concentrations of biologically active Tat protein for 24 hours at 37° C. After treatment, the expression of the different subunits was analysed and compared to that of untreated cells. […] However, treatment with 0.1-1 μg/ml of Tat determined a down-regulation of LMP2 and an up-regulation of LMP7 and MECL1 as compared to untreated cells (FIG. 4).

[2] = tested on: proteasomes purified from MIN and MON LCL's; test: Enzyme assays of proteasomes purified from LCL's (Suc-LLVY-AMC, Boc-LRR-AMC, Ac-YVAD-AMC); format: biochemical, human
Procedure: Cells (5×10^7) were washed in cold PBS and resuspended in buffer containing 50 mM Tris-HCl pH 7.5, 5 mM MgCl2, 1 mM dithiothreitol (DTT, Sigma), 2 mM ATP, 250 mM sucrose. Glass beads equivalent to the volume of the cellular suspension were added and cells were vortexed for 1 min at 4° C. Beads and cell debris were removed by 5 minutes centrifugation at 1000×g, followed by 20 minutes centrifugation at 10,000×g. Supernatants were ultracentrifuged for 1 hour at 100,000×g^44. Supernatants were loaded into an affinity column containing an agarose matrix derivatised with the MCP21 mAb specific for the α2 subunit of the proteasome (Affinity, Exeter, UK). […] Protein concentration was determined using BCA protocol (Pierce Chemical).
The fluorogenic substrates Suc-LLVY-AMC, Boc-LRR-AMC and Ac-YVAD-AMC were used to measure chymotrypsin-like, trypsin-like and post-acidic proteasome activities, respectively. […] Fluorescence was determined by a fluorimeter (Spectrafluor plus, Tecan, Salzburg, Austria) using an excitation of 360 nm and emission of 465 nm. Proteasome activity is expressed in arbitrary fluorescence units^11.
To investigate whether the differences in subunit composition detected by Western blot analysis correlated with differences in enzymatic activity, we analysed the cleavage specificity of equal amount of proteasomes isolated from MIN-Tat and MON-Tat cells or control cells. […]

[3] = tested on: proteasomes purified from Jurkat cells; test: Enzymatic assays of proteasomes purified from Jurkat cells treated with Tat; format: biochemical, human; conditions: proteasomes from Jurkat cells treated for 24 h with 1 μg/ml Tat protein vs control cells
Procedure: Cells were lysed with glass beads as previously described (4). Supernatants were ultracentrifuged for 1 h at 100,000 g and loaded into an affinity column containing a matrix derivatised with the MCP21 mAb specific for the α2 subunit of the proteasome (Affinity, Exeter, UK). Proteasomes were eluted with 25 mM Tris-HCl pH 7.5 containing 2 M NaCl, and 0.5 ml fractions were collected. Homogeneity of the eluted material was confirmed by analysis of an aliquot by SDS 12% PAGE and Coomassie blue staining of the gel. Fractions containing proteasomes were combined and dialysed against 25 mM Tris-HCl pH 7.5. Protein concentration was determined using the BCA method (Pierce Chemical, Rockford, Ill.).
The chymotrypsin-like, trypsin-like and post-acidic activities of purified proteasomes were tested using the fluorogenic substrates Suc-LLVY-AMC, Boc-LRR-AMC and Ac-YVAD-AMC, respectively, as previously described (4). Fluorescence was determined by a fluorimeter (Spectrafluor plus, Tecan, Salzburg, Austria). Proteasome activity is expressed as arbitrary fluorescence units.
To investigate whether the differences in subunit composition correlated with differences in enzymatic activity, we analysed the cleavage specificity of equal amounts of proteasomes purified from Jurkat cells treated for 24 h with 1 μg/ml Tat protein or from control cells. […]

[4] = tested on: MIN and MON LCL's (EBV IVT, AVF, YLQ, CLG epitopes); test: Cytotoxicity assay of EBV epitope-specific CTLs against LCL targets
Procedure: HLA A11-restricted EBV-specific CTL cultures reacting against the EBNA4-derived [sequence] (SEQ ID NO 280) (IVT) and [sequence] […] (SEQ ID NO 282) (CLG) epitope, corresponding to amino acid 426-434^28, and the Lmp1-derived [sequence] […] The first stimulation was performed in RPMI 1640 medium containing 10% FCS. A second and a third stimulation were performed in the same conditions on day 7 and day 14. Starting from day 8 the medium was supplemented with 10 U/ml rIL-2 (Chiron, Milan, Italy).
Target cells were labelled with Na2^51CrO4 for 90 min at 37° C. Cytotoxicity tests were routinely run at different effector: target ratios in triplicate. Percent specific lysis was calculated as 100×(cpm sample−cpm medium)/(cpm Triton X-100−cpm medium)^27. Spontaneous release was always less than 20%.
To this purpose, the HLA-2 and -A11 positive MIN LCL and the HLA-A2 positive MON LCL, transduced or not with Tat, were tested as target in cytotoxic assays using CTL cultures specific for the IVT, AVF, CLG and YLQ epitopes (FIG. 6).

[5] = LCL's expressing endogenous Tat vs control cells
[6] = LCL's treated with 0.1-1 μg/ml of Tat, 24 hours, vs untreated
[7] = LCL expressing endogenous Tat vs empty vector
[8] = MIN LCL treated with 0.1 μg/ml Tat protein for 24 hours vs untreated

Tat: HIV-1 Tat protein from HTLV type IIIB isolate, expressed in E. Coli or endogenously in cells; wild type SEQ ID NO 284
proteasome expression (α2-subunit) ([1]; LCL's expressing endogenous Tat (MIN-Tat, MON-Tat) vs control cells): No difference | expression of LMP2 [1, 5]: marked down-regulation | expression of LMP7 [1, 5]: up-regulation | expression of MECL1 [1, 5]: up-regulation | expression of PA28α regulator [1, 5]: no differences | expression of LMP2 [1, 6]: down-regulation | expression of LMP7 [1, 6]: up-regulation | expression of MECL1 [1, 6]: up-regulation | expression of the α2-subunit ([1]; MIN and MON LCL's cultured with exogenous Tat protein, 24 hours, vs untreated): No difference | three proteolytic activities of proteasomes ([2]; proteasomes from MIN and MON LCL's treated with 0.1 μg/ml of Tat (data not shown)): increase of all three proteolytic activities | chymotryptic-like, tryptic-like and post-acidic activities of proteasomes ([2]; proteasomes from MIN-Tat and MON-Tat cells vs control cells): higher | chymotryptic-like, tryptic-like and post-acidic activities [3]: all augmented | IVT- and AVF-specific CTL killing [4, 7]: decrease | YLQ- and CLG-specific killing [4, 7]: increase | lysis by YLQ- and CLG-specific CTLs [4, 8]: lysed at higher efficiency | sensitivity to IVT- and AVF-specific CTL killing [4, 8]: less sensitive
